Test results published in PubChem BioAssay AID2060900 (Molecular Pharmacology Branch, DTP, NCI, 2025).
“And” between values parts separate entries of the source, which are not always exact repeats. Equal values may be shown once.

Tested on: 521955-158-R2-J5-PDC complex spheroids, viability
Test: Anticancer human tumor 521955-158-R2-J5-PDC patient-derived pancreatic carcinoma cell line growth inhibition [RAS]
Details: for viability, T/C: stronger effect = lower value; active = viability on the fitted dose curve at most 10% of control; inactive = the rest
Procedure, shortened: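 Tumour cells grown as complex spheroids with HUVEC endothelial cells and mesenchymal stem cells, treated with RAS pathway inhibitor combinations. Each agent spans half-log steps from near clinical Cmax, or 10 microM where Cmax is unknown.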

[1] = curve of first compound, second compound 0.000949 µM
[2] = curve of first compound, second compound 0.003 µM
[3] = curve of first compound, second compound 0.00949 µM
[4] = curve of first compound, second compound 0.03 µM
[5] = curve of first compound, second compound 0.0949 µM
[6] = curve of first compound, second compound 0.3 µM
[7] = second compound 0.000949 µM, first compound 0.0316 µM
[8] = second compound 0.000949 µM, first compound 0.1 µM
[9] = second compound 0.000949 µM, first compound 0.316 µM
[10] = second compound 0.000949 µM, first compound 1 µM
[11] = second compound 0.000949 µM, first compound 3.16 µM
[12] = second compound 0.000949 µM, first compound 10 µM
[13] = second compound 0.003 µM, first compound 0.0316 µM
[14] = second compound 0.003 µM, first compound 0.1 µM
[15] = second compound 0.003 µM, first compound 0.316 µM
[16] = second compound 0.003 µM, first compound 1 µM
[17] = second compound 0.003 µM, first compound 3.16 µM
[18] = second compound 0.003 µM, first compound 10 µM
[19] = second compound 0.00949 µM, first compound 0.0316 µM
[20] = second compound 0.00949 µM, first compound 0.1 µM
[21] = second compound 0.00949 µM, first compound 0.316 µM
[22] = second compound 0.00949 µM, first compound 1 µM
[23] = second compound 0.00949 µM, first compound 3.16 µM
[24] = second compound 0.00949 µM, first compound 10 µM
[25] = second compound 0.03 µM, first compound 0.0316 µM
[26] = second compound 0.03 µM, first compound 0.1 µM
[27] = second compound 0.03 µM, first compound 0.316 µM
[28] = second compound 0.03 µM, first compound 1 µM
[29] = second compound 0.03 µM, first compound 3.16 µM
[30] = second compound 0.03 µM, first compound 10 µM
[31] = second compound 0.0949 µM, first compound 0.0316 µM
[32] = second compound 0.0949 µM, first compound 0.1 µM
[33] = second compound 0.0949 µM, first compound 0.316 µM
[34] = second compound 0.0949 µM, first compound 1 µM
[35] = second compound 0.0949 µM, first compound 3.16 µM
[36] = second compound 0.0949 µM, first compound 10 µM
[37] = second compound 0.3 µM, first compound 0.0316 µM
[38] = second compound 0.3 µM, first compound 0.1 µM
[39] = second compound 0.3 µM, first compound 0.316 µM
[40] = second compound 0.3 µM, first compound 1 µM
[41] = second compound 0.3 µM, first compound 3.16 µM
[42] = second compound 0.3 µM, first compound 10 µM
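Also: compound exposure lasted seven days before the viability read.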
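For viability, T/C in this document: spheroids also contain HUVEC endothelial cells and mesenchymal stem cells as stroma.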

CC(C)NCC(C(=O)N1CCN(c2ncnc3c2C(C)CC3O)CC1)c1ccc(Cl)cc1 (stereo not given) + CCn1c(-c2cc(N3CCN(C)CC3)cnc2C(C)OC)c2c3cc(ccc31)-c1csc(n1)CC(NC(=O)C1CC1C)C(=O)N1CCCC(N1)C(=O)OCC(C)(C)C2
< 0.0316 µM: IC50 [1] | IC50 [2] | IC50 [3] | IC50 [4] | IC50 [5] | IC50 [6]
active: viability, T/C [18] 11.1% | viability, T/C [23] 4.36% | viability, T/C [24] 7.59% | viability, T/C [28] 5.37% | viability, T/C [29] 5.01% | viability, T/C [30] 1.08% | viability, T/C [33] 8.25% | viability, T/C [34] 4.84% | viability, T/C [35] 4.83% | viability, T/C [36] 1.9% | viability, T/C [38] 11% | viability, T/C [39] 8.33% | viability, T/C [40] 2.49% | viability, T/C [41] 4.32% | viability, T/C [42] 1.07%
inactive: viability, T/C [7] 33.8% | viability, T/C [8] 38.8% | viability, T/C [9] 35.5% | viability, T/C [10] 23% | viability, T/C [11] 15.5% | viability, T/C [12] 18.1% | viability, T/C [13] 41.8% | viability, T/C [14] 37% | viability, T/C [15] 36% | viability, T/C [16] 15% | viability, T/C [17] 6.94% | viability, T/C [19] 38.7% | viability, T/C [20] 33.9% | viability, T/C [21] 28% | viability, T/C [22] 8.72% | viability, T/C [25] 20.9% | viability, T/C [26] 21.9% | viability, T/C [27] 16.6% | viability, T/C [31] 11.8% | viability, T/C [32] 13.1% | viability, T/C [37] 10.5%

Cc1nc(N2CCC3(CC2)COC(C)C3N)c(CO)nc1Sc1ccnc(N)c1Cl (stereo not given) + CCn1c(-c2cccnc2C(C)OC)c2c3cc(ccc31)N1CCOC(CC(NC(=O)C(C(C)C)N(C)C(=O)C3(F)CCN(C(=O)C#CC(C)(C)N(C)C)CC3)C(=O)N3CCCC(N3)C(=O)OCC(C)(C)C2)C1
> 10 µM: IC50 [1]
3.12 µM: IC50 [3]
5.11 µM: IC50 [2]
4.39 µM: IC50 [5]
1.19 µM: IC50 [4]
inactive: viability, T/C [7] 72.8% | viability, T/C [8] 64% | viability, T/C [9] 50.8% | viability, T/C [10] 59.4% | viability, T/C [11] 52.6% | viability, T/C [12] 50.8% | viability, T/C [13] 74.3% | viability, T/C [14] 61.3% | viability, T/C [15] 73.6% | viability, T/C [16] 61.4% | viability, T/C [17] 49.4% | viability, T/C [18] 46.4% | viability, T/C [19] 75.7% | viability, T/C [20] 61.8% | viability, T/C [21] 61.6% | viability, T/C [22] 50.4% | viability, T/C [23] 50.1% | viability, T/C [24] 48.4% | viability, T/C [25] 83% | viability, T/C [26] 64.4% | viability, T/C [27] 54.2% | viability, T/C [28] 49.2% | viability, T/C [29] 50.8% | viability, T/C [30] 47% | viability, T/C [31] 68% | viability, T/C [32] 66.3% | viability, T/C [33] 55.8% | viability, T/C [34] 54.1% | viability, T/C [35] 55% | viability, T/C [36] 45.6% | viability, T/C [37] 59.1% | viability, T/C [38] 46.3% | viability, T/C [39] 53.9% | viability, T/C [40] 51.6% | viability, T/C [41] 45.4% | viability, T/C [42] 42.8%
0.546 µM: IC50 [6]

CCc1c2c(nc3ccc(O)cc13)-c1cc3c(c(=O)n1C2)COC(=O)[C@]3(O)CC
2.64 nM [middle of 4 runs]: IC50 (curve of compound)
10.1% [middle of 4 runs]: viability, T/C (compound 0.03 µM)
inactive: viability, T/C (compound 0.000949 µM) 82.5% [middle of 4 runs] | viability, T/C (compound 0.003 µM) 44.6% [middle of 4 runs] | viability, T/C (compound 0.00949 µM) 19.9% [middle of 4 runs]
active: viability, T/C (compound 0.0949 µM) 6.59% [middle of 4 runs] | viability, T/C (compound 0.3 µM) 6.5% [middle of 4 runs]

NC1c2ccccc2OC12CCN(c1cnc3c(N4CCCc5ncccc54)n[nH]c3n1)CC2 (stereo not given) + CCn1c(-c2cc(N3CCN(C)CC3)cnc2C(C)OC)c2c3cc(ccc31)-c1csc(n1)CC(NC(=O)C1CC1C)C(=O)N1CCCC(N1)C(=O)OCC(C)(C)C2
active: viability, T/C [18] 5.75% | viability, T/C [22] 11.2% | viability, T/C [23] 6.08% | viability, T/C [24] 3.95% | viability, T/C [26] 8.87% | viability, T/C [27] 10.9% | viability, T/C [28] 8.91% | viability, T/C [29] 7.26% | viability, T/C [30] 4.07% | viability, T/C [32] 9.54% | viability, T/C [33] 11.1% | viability, T/C [34] 5.55% | viability, T/C [35] 8% | viability, T/C [36] 3.91% | viability, T/C [38] 7.36% | viability, T/C [39] 9.18% | viability, T/C [40] 8.17% | viability, T/C [41] 9.16% | viability, T/C [42] 3.2%
< 0.0316 µM: IC50 [1] | IC50 [2] | IC50 [3] | IC50 [4] | IC50 [5] | IC50 [6]
inactive: viability, T/C [7] 36.8% | viability, T/C [8] 33.9% | viability, T/C [9] 36.1% | viability, T/C [10] 20.8% | viability, T/C [11] 18.5% | viability, T/C [12] 13.4% | viability, T/C [13] 35.4% | viability, T/C [14] 28.6% | viability, T/C [15] 21.4% | viability, T/C [16] 19.2% | viability, T/C [17] 13.3% | viability, T/C [19] 24.2% | viability, T/C [20] 16% | viability, T/C [21] 14.4% | viability, T/C [25] 10.4% | viability, T/C [31] 11% | viability, T/C [37] 10.1%

CCn1c(-c2cc(N3CCN(C)CC3)cnc2C(C)OC)c2c3cc(ccc31)-c1csc(n1)CC(NC(=O)C1CC1C)C(=O)N1CCCC(N1)C(=O)OCC(C)(C)C2 (stereo not given)
< 0.000949 µM and 0.00104 µM: IC50 (compound alone, run of 05/20/2024)
inactive: viability, T/C (compound 0.000949 µM) 46.5% [middle of 8 runs] | viability, T/C (compound 0.003 µM) 40.6% [middle of 8 runs] | viability, T/C (compound 0.00949 µM) 37.5% [middle of 8 runs] | viability, T/C (compound 0.03 µM) 21.3% [middle of 8 runs] | viability, T/C (compound 0.0949 µM) 12.8% [middle of 8 runs]
10.2% [middle of 8 runs]: viability, T/C (compound 0.3 µM)
